Measurements: ChEMBL document CHEMBL1127303, “Triazolinone biphenylsulfonamides as angiotensin II receptor antagonists with high affinity for both the AT1 and AT2 subtypes” (J Med Chem, 1994)

Columns and labels:
Assay type in all cases: functional
Rattus norvegicus [1] = test: Tested for the ability to inhibit the pressor response to angiotensin II (AII) after (iv) administration at the dose of 1.0 mg/kg with duration of >24 hr in four rats
Rattus norvegicus [2] = test: Tested for the ability to inhibit the pressor response to angiotensin II (AII) by oral administration at the dose of 1.0 mg/kg with duration of>6, <24 hr in four rats
Rattus norvegicus [3] = test: Tested for the ability to inhibit the pressor response to angiotensin II (AII) by intravenous administration at the dose of 1.0 mg/kg with duration of >6, <24 hr in two rats
Rattus norvegicus [4] = test: Tested for the ability to inhibit the pressor response to angiotensin II (AII) by oral administration at the dose of 1.0 mg/kg with duration of>6, <24 hr in two rats

| Structure (SMILES) | inhibition in vivo at 1 mg/kg (Rattus norvegicus [1]) [%] | inhibition in vivo at 1 mg/kg (Rattus norvegicus [2]) [%] | inhibition in vivo at 1 mg/kg (Rattus norvegicus [3]) [%] | inhibition in vivo at 1 mg/kg (Rattus norvegicus [4]) [%] |
| --- | --- | --- | --- | --- |
| CCCCc1nn(-c2ccccc2C(F)(F)F)c(=O)n1Cc1ccc(-c2ccccc2S(=O)(=O)NC(=O)c2ccccc2Cl)cc1 | 91 | 85 | – | – |
| CCCCc1nn(-c2ccccc2C(F)(F)F)c(=O)n1Cc1ccc(-c2ccccc2S(=O)(=O)NC(=O)OC(C)(C)C)cc1 | – | – | 83 | 87 |
